One assay addresses T1, human P2X4 receptor (Homo sapiens, UniProt Q99571).
T1 sequence (Q99571 1-388): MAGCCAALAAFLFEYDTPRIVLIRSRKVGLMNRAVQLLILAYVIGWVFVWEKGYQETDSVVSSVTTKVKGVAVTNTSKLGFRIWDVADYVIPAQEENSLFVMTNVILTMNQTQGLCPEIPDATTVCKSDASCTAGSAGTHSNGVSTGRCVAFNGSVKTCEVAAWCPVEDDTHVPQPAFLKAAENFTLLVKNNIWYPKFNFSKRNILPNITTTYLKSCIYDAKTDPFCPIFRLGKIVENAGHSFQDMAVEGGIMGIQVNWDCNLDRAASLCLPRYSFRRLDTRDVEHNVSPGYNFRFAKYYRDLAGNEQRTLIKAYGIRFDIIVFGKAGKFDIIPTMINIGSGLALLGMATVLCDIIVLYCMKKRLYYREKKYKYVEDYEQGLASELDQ
Description: P2X4 receptor antagonist activity, ATP-induced intracellular calcium (Fura-2 AM) in 1321N1 cells stably expressing human P2X4 receptor. In kind it is cell-based. As to conditions: among human, mouse, and rat. (Calcium flux is commonly read through the fluorescence of an indicator in the cells.)

The target in a further assay is T2, Human P2X7 (Homo sapiens, UniProt Q99572).
T2 construct: host or cells: cells expressing the receptor
T2 sequence (Q99572 1-595): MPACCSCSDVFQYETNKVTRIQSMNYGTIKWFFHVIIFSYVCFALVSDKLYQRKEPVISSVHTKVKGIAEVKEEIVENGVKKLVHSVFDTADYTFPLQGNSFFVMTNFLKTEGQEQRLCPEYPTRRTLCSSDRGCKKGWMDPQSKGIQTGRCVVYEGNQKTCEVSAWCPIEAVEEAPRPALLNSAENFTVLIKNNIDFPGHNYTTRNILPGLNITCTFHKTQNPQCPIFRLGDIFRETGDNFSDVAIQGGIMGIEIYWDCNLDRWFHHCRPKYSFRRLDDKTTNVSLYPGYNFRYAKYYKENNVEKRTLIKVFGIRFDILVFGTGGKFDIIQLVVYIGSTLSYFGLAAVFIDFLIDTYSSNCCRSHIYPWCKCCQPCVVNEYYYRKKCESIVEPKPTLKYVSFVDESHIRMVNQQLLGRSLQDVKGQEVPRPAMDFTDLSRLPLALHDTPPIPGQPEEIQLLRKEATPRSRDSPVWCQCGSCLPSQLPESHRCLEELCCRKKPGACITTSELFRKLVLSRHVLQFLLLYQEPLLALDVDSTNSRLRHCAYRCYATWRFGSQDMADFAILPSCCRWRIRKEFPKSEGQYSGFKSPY
Description: P2X receptor family selectivity, calcium imaging method using cells expressing the receptor. In kind it is cell-based.

The next assay deals with T3, Rat P2X7 (Rattus norvegicus, UniProt Q64663).
T3 construct: host or cells: cells expressing the receptor
T3 sequence (Q64663 1-595): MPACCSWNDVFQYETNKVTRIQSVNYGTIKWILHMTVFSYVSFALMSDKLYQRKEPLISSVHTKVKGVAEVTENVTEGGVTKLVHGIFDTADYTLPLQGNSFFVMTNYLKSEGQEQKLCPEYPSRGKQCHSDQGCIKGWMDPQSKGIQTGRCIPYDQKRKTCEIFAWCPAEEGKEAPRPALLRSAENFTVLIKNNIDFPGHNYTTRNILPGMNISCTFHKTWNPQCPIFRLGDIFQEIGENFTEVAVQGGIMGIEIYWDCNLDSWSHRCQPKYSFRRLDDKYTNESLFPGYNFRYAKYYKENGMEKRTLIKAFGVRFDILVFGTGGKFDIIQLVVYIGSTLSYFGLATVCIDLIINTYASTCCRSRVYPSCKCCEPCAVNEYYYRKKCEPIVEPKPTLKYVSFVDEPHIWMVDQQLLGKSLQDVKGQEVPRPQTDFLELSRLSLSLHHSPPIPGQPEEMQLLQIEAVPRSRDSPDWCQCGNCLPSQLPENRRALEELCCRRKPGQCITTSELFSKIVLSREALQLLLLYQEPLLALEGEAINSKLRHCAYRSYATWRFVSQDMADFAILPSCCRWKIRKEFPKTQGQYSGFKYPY
The description is as above. It counts as cell-based.

Assay [1] has as its system rat neuropathic pain model (modified Chung model). Description: Analgesic activity, rat neuropathic pain model (modified Chung model), von Frey filament test. It counts as in vivo. How it is done:
The analgesic activity of the compound of the present invention was measured by the following method.
Rat neuropathic pain model (modified Chung model) was prepared according to the method of Kim, S. H., Chung, J. M. et al. (An experimental model for peripheral neuropathy produced by segmental spinal nerve ligation in the rat, Pain, 50, 355-363 (1992)). More specifically; under isoflurane anesthesia, back hair of rats was extensively shaved, the shaved parts were wiped with rubbing alcohol, the rats were fixed in the prone position on a heating pad, and the skins were cut and opened along the dorsal median line on the upper and lower sides of the sacroiliac bone. The left lateral paravertebral muscle was separated in the sacral region, and then the ligament was separated. […]
The pain threshold (paw withdrawal threshold (g)) was measured by stimulating the soles of rats with each of seven von Frey filaments (Stoelting Co., TOUCH-TEST SENSORY EVALUATOR) that gave different stimulation strengths, and determining presence or absence of withdrawal response. The 50% threshold was calculated according to the up down method with reference to the method of Chaplan et al. (Chaplan S R, Bach F W, Pogrel J W, Chung J M, Yaksh T L: Quantitative assessment of tactile allodynia in the rat paw, J. Neurosci. Method, 53:55-63 (1994)). […]

A further assay concerns the target T4, Rat P2X4 (Rattus norvegicus, UniProt P51577).
T4 construct: host or cells: cells expressing the receptor
T4 sequence (P51577 1-388): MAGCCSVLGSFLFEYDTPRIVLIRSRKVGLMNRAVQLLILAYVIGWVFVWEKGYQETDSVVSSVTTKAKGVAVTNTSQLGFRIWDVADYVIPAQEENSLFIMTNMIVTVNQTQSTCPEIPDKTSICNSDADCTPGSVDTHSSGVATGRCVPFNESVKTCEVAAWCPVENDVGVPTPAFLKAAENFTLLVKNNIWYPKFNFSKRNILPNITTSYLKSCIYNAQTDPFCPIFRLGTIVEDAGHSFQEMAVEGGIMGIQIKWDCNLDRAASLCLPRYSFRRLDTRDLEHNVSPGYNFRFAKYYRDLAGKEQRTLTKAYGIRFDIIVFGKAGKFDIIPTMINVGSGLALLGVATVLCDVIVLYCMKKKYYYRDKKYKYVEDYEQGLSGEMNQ
Description: P2X receptor family selectivity, calcium imaging method using cells expressing the receptor. In kind it is cell-based. An excerpt: (§1) The inhibitory activities of the compound against the rat and mouse P2X4 receptors were also confirmed.

For the next assay, the target named is T5, Mouse P2X4 (Mus musculus, UniProt Q9JJX6).
T5 construct: host or cells: cells expressing the receptor
T5 sequence (Q9JJX6 1-388): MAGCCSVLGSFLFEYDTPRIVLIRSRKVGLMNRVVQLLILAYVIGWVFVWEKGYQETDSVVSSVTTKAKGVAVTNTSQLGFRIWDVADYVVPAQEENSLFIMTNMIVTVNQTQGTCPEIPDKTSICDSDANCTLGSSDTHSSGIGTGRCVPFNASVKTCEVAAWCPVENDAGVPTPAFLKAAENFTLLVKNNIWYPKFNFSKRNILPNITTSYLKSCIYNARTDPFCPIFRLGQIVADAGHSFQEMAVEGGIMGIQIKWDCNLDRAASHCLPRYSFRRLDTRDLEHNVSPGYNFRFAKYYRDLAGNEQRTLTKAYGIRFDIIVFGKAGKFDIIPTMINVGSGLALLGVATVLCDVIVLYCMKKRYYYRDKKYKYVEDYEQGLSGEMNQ
Described as above. In kind it is cell-based.
Text: as §1

In the next assay the target is T6, Rat P2X3 (Rattus norvegicus, UniProt P49654).
T6 construct: host or cells: cells expressing the receptor
T6 sequence (P49654 1-397): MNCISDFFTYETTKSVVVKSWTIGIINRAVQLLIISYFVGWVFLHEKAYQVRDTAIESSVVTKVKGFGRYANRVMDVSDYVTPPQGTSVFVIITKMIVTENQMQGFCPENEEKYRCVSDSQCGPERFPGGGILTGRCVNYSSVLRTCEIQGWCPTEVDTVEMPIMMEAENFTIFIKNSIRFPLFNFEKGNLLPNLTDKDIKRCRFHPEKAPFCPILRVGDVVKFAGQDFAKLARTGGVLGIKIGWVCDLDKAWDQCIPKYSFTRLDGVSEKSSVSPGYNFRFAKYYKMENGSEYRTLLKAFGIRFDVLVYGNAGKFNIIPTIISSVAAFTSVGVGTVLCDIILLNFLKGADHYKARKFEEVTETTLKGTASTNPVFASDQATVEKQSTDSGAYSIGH
Described as above. In kind it is cell-based.

These results are taken from patent US10472333B2, “P2X4 receptor antagonist” (NIPPON CHEMIPHAR CO., LTD., priority 2013, dated 2019).

Take `CN(C)c1ncccc1C(=O)Nc1ccc(C2=NCC(=O)Nc3c2ccc2ccccc32)cc1.Cl.Cl` [Example 15, 2-(Dimethylamino)-N-[4-(2-oxo-2,3-dihydro-1H-naphtho[1,2-e][1,4]diazepin-5-yl)phenyl]nicotinamide dihydrochloride]: the “Species-specific difference of the P2X4 receptor inhibitory activity” value on human P2X4 receptor is “not observed”. Besides, the concentration for half-maximal inhibition (IC50) is > 30 µM at Human P2X7; > 30 µM at Rat P2X7; 1300 nM at Rat P2X4; 520 nM on Mouse P2X4; 6.8 µM on Rat P2X3. In addition, the “pain threshold of the affected limb (von Frey filament test)” value in assay [1] (rat modified Chung model, 30 mg/kg orally twice a day (60 mg/kg/day) for 14 days from day 9 after operation, measured 3 hours after administration, vs. vehicle group) is on record as “increased”. Moreover, the analgesic activity result in assay [1] (rat neuropathic pain model (modified Chung model)) was “superior analgesic activity”.

One may read the IC50 as the midpoint of a concentration-inhibition curve.
